Biological target: dipeptidyl peptidase 4 (DPP4) (Homo sapiens, UniProt P27487)
Assay: protease activity profiling assay (BPS Bioscience service), […]~[…] compound in […] DMSO
Format: biochemical

Chain of dipeptidyl peptidase 4 (DPP4) (P27487 39-766): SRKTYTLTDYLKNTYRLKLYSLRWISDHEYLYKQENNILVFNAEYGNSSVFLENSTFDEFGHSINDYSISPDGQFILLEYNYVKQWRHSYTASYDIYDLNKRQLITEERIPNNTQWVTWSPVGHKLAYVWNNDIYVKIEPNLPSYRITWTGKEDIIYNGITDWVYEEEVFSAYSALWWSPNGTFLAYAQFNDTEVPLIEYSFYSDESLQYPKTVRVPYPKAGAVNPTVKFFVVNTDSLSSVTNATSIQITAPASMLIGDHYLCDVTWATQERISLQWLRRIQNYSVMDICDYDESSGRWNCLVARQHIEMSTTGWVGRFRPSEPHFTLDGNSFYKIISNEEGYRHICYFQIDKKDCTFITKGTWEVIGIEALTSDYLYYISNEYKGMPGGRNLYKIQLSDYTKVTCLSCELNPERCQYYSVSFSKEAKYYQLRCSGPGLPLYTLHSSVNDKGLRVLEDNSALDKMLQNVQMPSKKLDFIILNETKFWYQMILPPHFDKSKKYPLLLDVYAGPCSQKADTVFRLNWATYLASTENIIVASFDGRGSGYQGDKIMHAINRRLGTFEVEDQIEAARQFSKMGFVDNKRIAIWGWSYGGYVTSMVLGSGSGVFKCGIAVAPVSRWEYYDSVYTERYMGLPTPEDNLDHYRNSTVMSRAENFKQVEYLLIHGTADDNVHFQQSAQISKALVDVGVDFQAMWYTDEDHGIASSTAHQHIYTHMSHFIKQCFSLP

O=C(Nc1cc(C(F)(F)F)cc(C(F)(F)F)c1)c1cc(Cl)ccc1O [IMD-0354, N-(3,5-Bis-trifluoromethylphenyl)-5-chloro-2-hydroxybenzamide]
IC50: 9.2 µM

Reference: publication PMC6620293, “Anti-cancer activity of the novel 2-hydroxydiarylamide derivatives IMD-0354 and KRT1853 through suppression of cancer cell invasion, proliferation, and survival mediated by TMPRSS4” (Scientific Reports, 2019)
